Where two headings read alike, the source gives them in different places.
Legend:
TAMs/MDSCs [1] = test: Nitric oxide assay (Greiss reagent) after in vitro TAMs/MDSCs screening; format: cell-based, mouse
Method: (§1) 10 million 4T1 cells in 300 μL PBS were injected into the peritoneal cavity. Peritoneal ascites were collected between day 7 and day 10 by peritoneal lavage. […] Cells were counted and ready for flow cytometry staining and in vitro screening.
(§2) Different concentrations of screening drugs listed in Table 2 were dissolved in the same medium and were added to each well containing 0.5 millions of cells in 300 μL medium. Wells containing 0.5 million cells in 300 μL medium without addition of drugs were kept as untreated control. Three extra wells were charged with 300 μL medium without cells and drugs to be kept as background control. […] At the end of incubation, supernatant was collected for IL-10 ELISA and nitric oxide assay. Cells were washed twice with 300 μL PBS, and were then ready for the arginase assay.
Nitric oxide production was measured with Greiss reagent as reported in Je-In Youn, Srinivas Nagaraj, Michelle Collazo, and Dmitry I. Gabrilovich, Subsets of Myeloid-Derived Suppressor Cells in Tumor Bearing Mice′, J Immunol. […] Briefly, after in vitro incubation of TAMs/MDSCs with different drugs, 50 μL of supernatant from each well was transferred into a 96-well plat bottom clear plate. 20 μL of Greiss reagent and 30 μL of DI water were added to each well with 50 μL of supernatant. The reaction solution was kept in the dark at room temperature for 30 min prior to a plate reader measurement. The absorbance at 548 nm is correlated to concentration of nitric oxide produced by TAMs/MDSCs. Results are shown in FIG. 9, FIG. 10, FIG. 11 and FIG. 14.

TAMs/MDSCs [2] = test: IL-10 ELISA assay after in vitro TAMs/MDSCs screening; format: cell-based, mouse; conditions: co-culture with drug; absorbance at 492 nm
Method: as §1
Cells isolated from the peritoneal model were re-suspended in completed RPMI 1640 medium supplemented with 10 ng/mL mouse GM-CSF and seeded into 96 well plates. Different concentrations of screening drugs listed in Table 2 were dissolved in the same medium and were added to each well containing 0.5 millions of cells in 300 μL medium. Wells containing 0.5 million cells in 300 μL medium without addition of drugs were kept as untreated control. Three extra wells were charged with 300 μL medium without cells and drugs to be kept as background control. Cells were then incubated at 37° C. in a humidified 95% air 5% CO2 atmosphere for 24 hours to 48 hours. At the end of incubation, supernatant was collected for IL-10 ELISA and nitric oxide assay. Cells were washed twice with 300 μL PBS, and were then ready for the arginase assay.
IL-10 production by TAMs/MDSCs after in vitro incubation with different compounds was determined by ELISA assay following the protocol provided with the Mouse IL-10 DuoSet ELISA by R&D Systems. Briefly, a high affinity 96-well plate was coated with 100 μL of diluted capture antibody per well with the working concentration of 4 μg/mL in PBS without carrier protein. The plate was sealed, and incubated overnight at room temperature. Each well was aspirated, and washed three times with 400 μL of wash buffer (0.05% Tween®20 in PBS, pH 7.2-7.4) using a squirt bottle. After the last wash, remaining wash buffer was removed by inverting the plate and blotting it against clean paper towels. The plates were blocked by adding 300 μL of reagent diluent (1% BSA in PBS, pH 7.2-7.4) to each well, and incubated at room temperature for 1 hour. Aspiration/wash was repeated three times in the same manner as previously described. The plates were ready for sample addition. 100 μL of sample supernatant from TAMs/MDSCs in vitro screening were added to each well. The plate was covered with an adhesive strip and incubated for 2 hours at room temperature. The previously mentioned aspiration/wash procedure was repeated three times. 100 μL of the detection antibody with the concentration of 300 ng/mL in reagent diluent was added to each well. The plate was covered with a new adhesive strip and incubated for 2 hours at room temperature. The previously mentioned aspiration/wash procedure was repeated three times. 100 μL of working dilution of streptavidin-HRP (1 to 40 dilution in reagent dilute) was added to each well. The plate was covered and incubated for 20 minutes at room temperature in dark. The previously mentioned aspiration/wash procedure was repeated three times. 200 μL of substrate solution (one bag of silver and golden tablets of OPD in 20 mL of DI water) was added to each well. The plate was incubated for 20 minutes at room temperature in dark. 50 μL of stop solution (3M HCl) was added to each well. The plate was gently tapped to ensure thorough mixing. The IL-10 concentration was proportional to the optical density determined by a microplate reader at 492 nm.

TAMs/MDSCs [3] = test: Arginase assay after in vitro TAMs/MDSCs screening; format: cell-based, mouse
Method: as §1, §2
Briefly, after in vitro incubation of isolated TAMs/MDSCs with different drugs in 96 well plates, cells were washed twice with 300 μL PBS. […] Subsequently, 50 μL of the lysate solutions were transferred to a new V-shape 96 well plate. 50 μL of arginase activation solution (10 mM MnCl2/50 mM Tris.Cl (pH 7.5)) were added into the cell lysate. The enzyme was activated by heating for 10 min at 56° C. Arginine hydrolysis was conducted by incubating 25 μL of the activated solution with 25 μL of arginase substrate solution (0.5 M L-arginine (pH 9.7)) at 37° C. for 60 min with mild shaking. After cooling to room temperature, 10 μL of the reaction solution was then diluted into 90 μL of PBS. 10 μL of this diluted solution was transferred to a 96 well flat bottom clear plate. 200 μL of urea reagents were added to each well. After incubation in the dark at room temperature for 10 min, the urea concentration was measured at 520 nm by plate reader.

[4] = test system: F4/80+CD86+ : F4/80+CD206+ macrophages; test: Ratio of M1 to M2 macrophages in 4T1 solid tumor; format: in vivo, balb/c mice; conditions: tumor digestion at end of therapeutic study
Method: The ratio of M1 to M2 macrophages (F4/80+CD86+: F4/80+CD206+) was tested in groups of untreated control, FA-TLR7 agonist, FA-PI3K inhibitor, FA-Tubulysin and combination as well as competition groups.
As described in the previous methods part, after tumor digestion at the end of therapeutic study, isolated cells were stained by F4/80 macrophage marker and M1 (CD86), M2 (CD206) markers. Macrophages in a tumor environment have been considered as a mainly M2 macrophage function, which can support tumor growth and suppress the immune response. On the other hand, M1 macrophages have been considered to be able to eliminate tumor cells and stimulate an anti-cancer immune response. Therefore, to study the M1 to M2 macrophage ratio is very important for targeting FR-β positive TAMs/MDSCs. […] Therefore, it could be concluded that by targeting FR+ TAMs/MDSCs in 4T1 solid tumor, the three classes of FA-conjugated […] are able to convert immunosuppression M2 macrophages environment to an anti-cancer M1 macrophages environment, which would contribute to the slow growth of a tumor.

F4/80+ macrophages = test: Intracellular staining of arginase on F4/80+ macrophages from 4T1 solid tumor; format: in vivo, balb/c mice; conditions: tumor digestion at end of therapeutic study
Method: Intracellular arginase staining: Cell surface markers for TAMs/MDSCs were labeled following procedures mentioned previously. 0.1 μL fixable viability dye eFluor® 660 was added together with antibody cocktails. After washing with PBS, cells were fixed with 4% formaldehyde in 500 μL of PBS for 15 min at 4° C. Cells were spun down to remove fixing solution. Cells were washed two times with 500 μL washing buffer containing 0.1 M glycine and 0.05% sodium azide. After being spun down a final time, cells were added 1 mL permeabilization solution containing 0.1 M glycine, 0.05% sodium azide and 0.1% triton-100. Permeabilization was performed at room temperature for 5 min. Permeabilized cells were spun down at 1500 rpm for 1 min, and the cells were washed three times with 1 mL blocking buffer containing 0.05 M glycine, 0.05% sodium azide and 0.2% gelatin. Cells were then re-suspended in 1 mL blocking buffer at 4° C. overnight to block non-specific intracellular binding. Cells were then spun down at 1500 rpm for 1 min to remove the supernatant and another 100 μL blocking buffer containing 1 μL FITC-arginase was added. Cells were kept in the dark at 4° C. overnight. After being spun down at 1500 rpm for 1 min, cells were washed with 1 mL blocking buffer and were then ready for flow cytometry analysis (BD Accuri C6™ flow cytometer). […]

MDSCs (CD11b+Gr1+) = test: MDSCs population (CD11b+Gr1+) in 4T1 solid tumor; format: in vivo, balb/c mice; conditions: tumor digestion at end of therapeutic study
Method: The MDSCs population (CD11b+Gr1+) was tested in groups of untreated control, FA-TLR7 agonist, FA-PI3K inhibitor, FA-Tubulysin and combination as well as competition groups.
As described in previous methods part, after tumor digestion at the end of therapeutic study, isolated cells were stained by MDSCs markers CD11b+Gr1+, see FIG. 26.

human MDSCs = test: IL-10 production by in vitro induced human MDSCs; format: cell-based; conditions: cultured with drugs for 2 days
Method: Human PBMCs from healthy donor were isolated by density gradient centrifugation following standard procedure: […]
Blood was dilute blood with PBS (1:2 dilutions). 15 ml of Ficoll was transferred to a 50 ml tube. 35 ml of diluted blood was carefully placed over the Ficoll medium. The tube was centrifuged at 400 g for 30 min, at 24° C. without brake. After the centrifuge stoped, the tube was carefully removed from the centrifuge while not disturbing the layering. The PBMCs were carefully remove from the tube and transferred to a new 50 mL conical tube. Isolated PBMCs were washed with PBS and centrifuged at 300 g for 10 min. The supernatant was decanted. The pellet was washed once again in PBS and centrifuged at 200 g for 15 min. The isolated PBMCs were counted with the hemocytometer.
Isolated PBMCs were further purified by adhesion in serum free medium for 4 hours at 37° C. at a density of 3×10^6 cell/ml. After removing the suspension cells, adhered PBMCs were cultured in completed RPMI-1640 supplied with 10 ng/ml of IL-6 and GM-CSF for 7 days. Human MDSCs were then sorted by flow as CD33+ cells. Normal human macrophages were differentiated by co-culture PBMCs with completed RPMI-1640 medium for 7 days.
Human MDSCs were cultured with selected drugs for 2 days. The IL-10 production by MDSCs was measured and plotted vs drug concentrations.

[5] = co-culture with drug, absorbance at 548 nm
[6] = co-culture with drug, absorbance at 520 nm

## CO[C@H]1C[C@@H]2CC[C@@H](C)[C@@](O)(O2)C(=O)C(=O)N2CCCC[C@H]2C(=O)O[C@H]([C@H](C)C[C@@H]2CC[C@@H](OCCO)[C@H](OC)C2)CC(=O)[C@H](C)/C=C(\C)[C@@H](O)[C@@H](OC)C(=O)[C@H](C)C[C@H](C)/C=C/C=C/C=C/1C [everolimus]
TAMs/MDSCs [1]; [5]
  nitric oxide production by TAMs/MDSCs in vitro: efficiently decrease nitric oxide production

## CC1CCN=C(N)S1 (stereo not drawn) [AMT]
TAMs/MDSCs [1]; [5]
  nitric oxide production by TAMs/MDSCs in vitro: efficiently decrease nitric oxide production

## NC(=O)c1cnc(NCCc2ccc(O)c(Cl)c2)nc1NCc1ccccc1 [AS1517499]
TAMs/MDSCs [2]
  IL-10 production by TAMs/MDSCs in vitro: efficiently decrease IL-10 production
TAMs/MDSCs [1]; [5]
  nitric oxide production by TAMs/MDSCs in vitro: efficiently decrease nitric oxide production
TAMs/MDSCs [3]; [6]
  arginase production by TAMs/MDSCs in vitro: efficiently decrease arginase production

## CCCCc1nc2c(N)nc3ccccc3c2n1CC(C)(C)OC(=O)OCCSSCC(NC(=O)CCC(NC(=O)c1ccc(NCc2cnc3nc(N)[nH]c(=O)c3n2)cc1)C(=O)O)C(=O)O (stereo not drawn) [FA-TLR7 agonist]
[4]
  M1 to M2 macrophages ratio vs untreated control: dramatically increased
F4/80+ macrophages
  arginase+F4/80+ cell population in live cells vs untreated control: dramatically decreased
4T1 solid tumor; competition group, same schedule
  anti-cancer effect on co-injection of 200 times more competitor (FA-PEG-NH2): can be competed
4T1 solid tumor; i.v. 5 days per week for 2 weeks from day 6, 10 nmol FA-TLR7 agonist, 10 nmol FA-PI3K inhibitor, 30 nmol FA-tubulysin
  tumor growth, therapeutic study: tumor growth was slowed down
4T1 solid tumor; i.v. 5 days per week for 2 weeks from day 6, especially in groups of 5 nmol, 10 nmol and 20 nmol
  tumor growth, dose study: tumor growth was slowed down
MDSCs (CD11b+Gr1+)
  MDSCs population (CD11b+Gr1+) vs untreated control: dramatically decreased MDSCs population

## CN(Cc1cnc2nc(N)nc(N)c2n1)c1ccc(C(=O)N[C@@H](CCC(=O)O)C(=O)O)cc1 [methotrexate]
TAMs/MDSCs [1]; [5]
  nitric oxide production by TAMs/MDSCs in vitro: efficiently decrease nitric oxide production

## Cc1c(CN2CCN(C(=O)[C@H](C)O)CC2)sc2c(N3CCOCC3)nc(-c3cnc(N)nc3)nc12 [GDC-0980]
TAMs/MDSCs [2]
  IL-10 production by TAMs/MDSCs in vitro: best candidate that can efficiently decrease IL-10
TAMs/MDSCs [1]; [5]
  nitric oxide production by TAMs/MDSCs in vitro: best candidate that can efficiently decrease nitric oxide
TAMs/MDSCs [3]; [6]
  arginase production by TAMs/MDSCs in vitro: best candidate that can efficiently decrease arginase
Human MDSCs
  IL-10 production by human MDSCs: decreasing IL-10 production

## CCCCNc1nc(N)c2[nH]c(=O)n(Cc3ccc(C(=O)NCC(=O)NCCCNCCCCNCCCN)cc3)c2n1 [CL307]
TAMs/MDSCs [3]; [6]
  arginase production by TAMs/MDSCs in vitro: efficiently decrease arginase production

## Cn1c(=O)n(-c2ccc(C(C)(C)C#N)cc2)c2c3cc(-c4cnc5ccccc5c4)ccc3ncc21 [BEZ235]
TAMs/MDSCs [2]
  IL-10 production by TAMs/MDSCs in vitro: efficiently decrease IL-10 production
TAMs/MDSCs [1]; [5]
  nitric oxide production by TAMs/MDSCs in vitro: efficiently decrease nitric oxide production
TAMs/MDSCs [3]; [6]
  arginase production by TAMs/MDSCs in vitro: efficiently decrease arginase production
Human MDSCs
  IL-10 production by human MDSCs: decreasing IL-10 production

## Cc1ccc(-n2nc(C(C)(C)C)cc2NC(=O)Nc2ccc(OCCN3CCOCC3)c3ccccc23)cc1 [BIRB796]
TAMs/MDSCs [2]
  IL-10 production by TAMs/MDSCs in vitro: efficiently decrease IL-10 production
TAMs/MDSCs [1]; [5]
  nitric oxide production by TAMs/MDSCs in vitro: efficiently decrease nitric oxide production
TAMs/MDSCs [3]; [6]
  arginase production by TAMs/MDSCs in vitro: efficiently decrease arginase production

## CC[C@]1(O)C[C@@H]2CN(CCc3c([nH]c4ccccc34)[C@@](C(=O)OC)(c3cc4c(cc3OC)N(C)[C@H]3[C@@](O)(C(=O)OC)[C@H](OC(C)=O)[C@]5(CC)C=CCN6CC[C@]43[C@@H]65)C2)C1 [vinblastine]
Human MDSCs
  IL-10 production by human MDSCs: decreasing IL-10 production

## CC[C@H](C)[C@H](NC(=O)[C@H]1CCCCN1C)C(=O)N(COC(=O)CC(C)C)[C@H](C[C@@H](OC(C)=O)c1nc(C(=O)N[C@@H](Cc2ccc(C)cc2)C[C@H](C)C(=O)O)cs1)C(C)C [tubulysin]
TAMs/MDSCs [2]
  IL-10 production by TAMs/MDSCs in vitro: efficiently decrease IL-10 production
TAMs/MDSCs [1]
  nitric oxide production by TAMs/MDSCs in vitro: efficiently decrease nitric oxide production
TAMs/MDSCs [3]
  arginase production by TAMs/MDSCs in vitro: efficiently decrease arginase production
Human MDSCs
  IL-10 production by human MDSCs: decreasing IL-10 production

## Nc1cccc2c1CN(C1CCC(=O)NC1=O)C2=O (stereo not drawn) [lenalidomide]
TAMs/MDSCs [2]
  IL-10 production by TAMs/MDSCs in vitro: efficiently decrease IL-10 production

— patent US20210170035A1, “METHOD OF TREATING CANCER BY TARGETING MYELOID-DERIVED SUPPRESSOR CELLS” (priority 2016, published 2021)
